survival, inhibition and IC50 data for five compounds are collected here from ChEMBL document CHEMBL4699405, “TPP-based mitocans: a potent strategy for anticancer drug design” (RSC Med Chem, 2020).

Experiment [1] in a line: Antitumor activity against human UCI 101 ovarian cells xenografted in BALB/c mouse assessed as survival of mouse at 8 mg/kg, ip qod followed by six doses at 5 mg/kg qod measured upto 180 days (reference value: 0 (50 days)). Type of experiment: functional. As to conditions: UCI101, ip, 4320 h, time 180 day. A general note: In xenograft studies the graft and the host belong to different species.

A further experiment deals with HCT-116. The experiment can be described thus: Cytotoxicity against human HCT-116 cells assessed as reduction in cell viability at 10 umol/L incubated for 24 hrs by LDH assay. Type of experiment: functional. The settings on record: HCT-116, 24 h, dose 10 µmol/L.
The next experiment relates to DU-145. The experiment can be described thus: Cytotoxicity against human DU-145 cells assessed as reduction in cell viability incubated for 24 hrs by SRB assay. Type of experiment: functional, cell-based. The settings on record: DU-145, 24 h. (In SRB staining, fixed cells bind dye roughly in proportion to their protein.)
In the next experiment the test system is HeLa. Kind of experiment: Cytotoxicity against human HeLa cells assessed as reduction in cell viability incubated for 24 hrs by SRB assay. Type of experiment: functional, cell-based.
A further experiment deals with MCF7. Kind of experiment: Cytotoxicity against human MCF7 cells assessed as reduction in cell viability incubated for 24 hrs by SRB assay. It counts as functional, cell-based. The settings on record: MCF7, 24 h.
In the next experiment the test system is SK-N-SH. The experiment can be described thus: Cytotoxicity against human SK-N-SH cells assessed as reduction in cell viability incubated for 24 hrs by SRB assay. Type of experiment: functional, cell-based.
Another experiment has as its system MDA-MB-231. The experiment can be described thus: Cytotoxicity against human MDA-MB-231 cells assessed as reduction in cell viability incubated for 24 hrs by SRB assay. Type of experiment: functional, cell-based. As to conditions: MDA-MB-231, 24 h.

For orientation: inhibition means the share of the control response that was lost under treatment. The IC50 is the point on the concentration scale where inhibition reaches its midpoint.

Regarding `CN(C)c1ccc([P+](CCCCl)(c2ccc(N(C)C)cc2)c2ccc(N(C)C)cc2)cc1`, in experiment [1], the survival at 8 mg/kg was 37.5%.

On to `C[n+]1ccc(-c2cc[n+](CCCCCCCCCC[P+](c3ccccc3)(c3ccccc3)c3ccccc3)cc2)cc1`, for which the inhibition at 10 µM in the experiment with HCT-116 is above 50%.

Turning to `COc1cc(/C=C/C(=O)CC(=O)/C=C/c2ccc(OCCC[P+](c3ccccc3)(c3ccccc3)c3ccccc3)c(OC)c2)ccc1O`, the IC50 came to 8.62 µM in the experiment with DU-145; 7.69 µM in the experiment on HeLa; 5.31 µM in the experiment with MCF7; 8.19 µM in the experiment on SK-N-SH; 8.33 µM with MDA-MB-231.

Consider `CN(C)c1ccc([P+](CCCI)(c2ccc(N(C)C)cc2)c2ccc(N(C)C)cc2)cc1`, for which the survival at 8 mg/kg in experiment [1] was found to be 12.5%.

As for `COc1cc(/C=C/C(=O)CC(=O)/C=C/c2ccc(OCCC[P+](c3ccccc3)(c3ccccc3)c3ccccc3)c(OC)c2)ccc1OCCC[P+](c1ccccc1)(c1ccccc1)c1ccccc1`, the IC50 was determined as 5.1 µM with DU-145; 4.46 µM with HeLa; 2.31 µM in the experiment on MCF7; 5.12 µM in the experiment on SK-N-SH; 5.1 µM in the experiment on MDA-MB-231.
